Experimental data taken from US20070197470A1, “Use of n-acetyl-d-aminogylcosamine in preparation of drugs for modulating microorganisms on mucous membrane” (priority 2003, published 2007).
Entries after “also recorded” stand apart in the source; their conditions may differ.

Experiments:
[1] = system: flora of mucocutaneous microecology; test: Clinical trial, detection of flora of mucocutaneous microecology (detection rates of various bacteria); assay type: in vivo, human
Excerpt: 56 patients with symptoms of microecological imbalance, including 20 patients with oral complaints, such as halitosis, oral infections caused by clinically unknown pathogenic bacteria, 20 patients with subaxilary complaints, such as slimy sensation or bromidrosis, and 16 patients with low […] of gynecological genitourinary tract caused by unknown source of infectious pathogen, were separately treated by mouthwash or topical sprinkle of 1% N-acetyl-D-glucosamine aqueous solution twice daily for 7 days. […] Detection results of flora of mucocutaneous microecology regulated by N-acetyl-D-glucosamine (detection rates of various bacteria)

Proteus Mirabilis = test: Promoting wave test (bio-wave model); assay type: cell-based
Excerpt: 1.1 Samples: Pure Compound of Formula (I)
• Strain: Proteus Mirabilis (which should comply with the following biological reaction characteristics: dynamics (+), urease (+), lactose (−), glucose (+), H2S (−), phenylalanine deaminase (+). • Culture medium: modified LB culture medium (the component of the composition are: 1% trytones, 0.5% yeast extract, 1% sodium chloride, 0.1% glucose, 0.002% TTC, and pH=7.2˜7.4). 1.3 Experimental Method:
The experiment adopted a bio-wave model for studying the promoting wave function of the compound of formula (I).

Pseudomonas aeruginosa = test: Tests of bacterial colonization resistance; assay type: in vivo; conditions: intestinal mucosa of test animals, different concentrations
Experimental: Pseudomonas aeruginosa is used in the tests of bacterial colonization resistance of the compound of formula (I). The intestinal mucosa of test animals that were pre-administrated with Pseudomonas aeruginosus and were treated by the compound of formula (I) with different concentrations was detected by in situ colonization, qualitative and quantitative methods.

[2] = system: patients with symptoms of microecological imbalance; test: Clinical trial, effects for regulating mucocutaneous microecology; assay type: in vivo, human
Excerpt: 56 patients with symptoms of microecological imbalance, including 20 patients with oral complaints, such as halitosis, oral infections caused by clinically unknown pathogenic bacteria, 20 patients with subaxilary complaints, such as slimy sensation or bromidrosis, and 16 patients with low […] of gynecological genitourinary tract caused by unknown source of infectious pathogen, were separately treated by mouthwash or topical sprinkle of 1% N-acetyl-D-glucosamine aqueous solution twice daily for 7 days. […] Observation of effects of N-acetyl-D-glucosamine for regulating mucocutaneous microecology

[3] = in vivo
Excerpt: • 1. Acute toxicity test: including tests of administrating medicine orally, intravenous injection and maximum limit amount for administration; • 2. Ames test; • 3. Micronucleus test of bone marrow cell of small mouse; • 4. Abnormal sexual test for the sperm of mouse; • 5. Abnormal aberrance test for the chromosin of mouse's testis; • 6. Chronic lethal test; • 7. Subchronic toxicity (feed for 90 days) test; • 8. Traditional deformity-inducing test;

[4] = Microecological imbalance of gynecological genitourinary tract, 16 cases
[5] = Subaxillary slimy sensation, 10 cases

Compound: CC(=O)N[C@@H]1[C@@H](O)[C@H](O)[C@@H](CO)O[C@H]1O [N-acetyl-D-glucosamine]
- detection rate of helicoids ([1]; Buccal cavity (salivary bacteria), after regulation, before regulation 12): helicoids (0)
- detection rate of corynebacterium diphtheroides ([1]; Buccal cavity (salivary bacteria), after regulation, before regulation 18): diphtheroides (8),
- detection rate of Streptococcus mutans ([1]; Buccal cavity (salivary bacteria), after regulation, before regulation 23): (7), streptococcus
- detection rate of streptococcus salivarius ([1]; Buccal cavity (salivary bacteria), after regulation, before regulation 40): salivarius (90),
- detection rate of Neisser's coccus ([1]; Buccal cavity (salivary bacteria), after regulation, before regulation 50): (95), corynebacterium
- detection rate of bacteroides ([1]; Buccal cavity (salivary bacteria), after regulation, before regulation 60): bacteroides (30),
- detection rate of aerobic coryneform bacteria ([1]; Skin of axillary fossa, after regulation, before regulation 18): bacteria (12), pityro-
- detection rate of Staphylococci ([1]; Skin of axillary fossa, after regulation, before regulation 20): Staphylococci (36),
- detection rate of pityrosporum furfur ([1]; Skin of axillary fossa, after regulation, before regulation 24): sporum furfur (15),
- detection rate of bacillus polymyxa odour ([1]; Skin of axillary fossa, after regulation, before regulation 40): odour (9)
- detection rate of bacillus acidi lactici ([1]; Woman's genitourinary tract, after regulation, before regulation 18): acidi lactici (60),
- detection rate of bacillus coli ([1]; Woman's genitourinary tract, after regulation, before regulation 29): bacillus coli (10)
- detection rate of Staphylococcus epidermidis ([1]; Woman's genitourinary tract, after regulation, before regulation 38): midis (35), bacillus
- change of flora after use ([1]; buccal cavity, skin of axillary fossa and woman's genitourinary tract): autochthonous flora increased and allochthonous flora decreased
- promoting wave function (Proteus Mirabilis): many fine waves on each ring emerged; also recorded: has promoting function to bio-waves
- colonization resistance against Pseudomonas aeruginosa (Pseudomonas aeruginosa): increased with the increase of its concentration
- total effective rate ([2]; 56 patients, 1% aqueous solution mouthwash or topical sprinkle twice daily for 7 days): 87.8%
- Cured ([2]; Bromidrosis, 10 cases): 5
- Effective ([2]; Bromidrosis, 10 cases): 3
- Effective rate (%) ([2]; Bromidrosis, 10 cases): 80%
- Ineffective ([2]; Bromidrosis, 10 cases): 2
- Cured [2, 4]: 7
- Effective [2, 4]: 6
- Effective rate (%) [2, 4]: 81.3%
- Ineffective [2, 4]: 3
- Cured ([2]; Oral compliant, 20 cases): 8
- Effective ([2]; Oral compliant, 20 cases): 10
- Effective rate (%) ([2]; Oral compliant, 20 cases): 90%
- Ineffective ([2]; Oral compliant, 20 cases): 2
- Cured [2, 5]: 7
- Effective [2, 5]: 3
- Effective rate (%) [2, 5]: 100%
- Ineffective [2, 5]: 0
- acute test dosage relative to the injection dosage for human being [3]: 300 times
- dosage at which the acute toxicosis reaction had not appeared [3]: more than 2 g/kg
- maximum dosage with no intoxication reaction ([3]; 4 weeks): 1 g/kg
